Results published in patent publication US20060014704A1, “Compounds and their preparation for the treatment of Alzheimer's disease by inhibiting beta-amyloid peptide production” (priority 2004, published 2006).
“Also recorded” adds a separate entry of the source. Read-outs that look alike come from different tables or passages of the source.

Experiments:
[1] = system: Aβ40 and Aβ42 production, CHO cells stably transfected with human APP695; assay: Secreted Aβ40/Aβ42 ELISA in CHO cells expressing human APP (CHO-APP cells); assay type: cell-based, Chinese hamster; parameters: key to Aβ42-lowering activity: Aβ42-lowering activity (“Yes”); no profound effects (“No”); non-determined (“ND”); Ginsenosides that affected cell viability are indicated as “Cytotoxic.”; details: for inhibitory effects on Aβ40 production / inhibitory effects on Aβ42 production: ginsenosides of unprocessed ginseng, 8 hours, FIG. 10 (50 μM); for Aβ42-lowering activity: summary of Tables 1-3; for levels of Aβ42 / production of Aβ42: CHO cells expressing wild-type human APP, PPT/PT
Procedure: The CHO cells were treated with the indicated compounds (at 50 μg/ml) for 8 hrs. Aβ42 levels in the medium were measured by ELISA and normalized to intracellular full-length APP.
The potential effects of ginsenosides and their analogues in treating AD were examined. First, a number of ginsenosides were screened based on their effects on Aβ generation. The effects of various ginsenosides on Aβ (e.g., Aβ40 and Aβ42) production was initially accessed by incubating the Chinese hamster ovary (CHO) cells expressing human APP(CHO-APP cells) with each ginsenoside purified from unprocessed ginseng (known as “white ginseng”). These representative ginsenosides included Rb1, Rb2, Rc, Rd, Re, Re, Rg1 and Rg2 and differ in their side chains and sugar moieties.
After 8 hours of incubation, the media were collected and the levels of secreted Aβ40 and Aβ42 were determined by ELISA.

γ-secretase = γ-secretase (Homo sapiens, UniProt P49768); assay: Cell-free γ-secretase assay (CHAPSO-solubilized membrane fractions, recombinant substrates, Aβ ELISA); assay type: biochemical; details: cell-free γ-secretase assay, FIG. 15 (100 μM in A)
Procedure: (A) CHAPSO-solubilized membrane fractions were incubated with recombinant γ-secretase substrates together with the indicated compounds (at 100 μM) and the levels of Aβ42 and Aβ40 were determined by ELISA as described (27-29). (B) Dose-response of Aβ40 and Aβ42-lowering activity of Rk1 and (20S)Rg3 in a cell-free γ-secretase assay.
Next, the inhibitory effects of Rk1 and (20S)Rg3 on Aβ generation in an in vitro γ-secretase assay was studied. […] In contrast, naproxen, an NSAID without Aβ42-lowering activity, had no effects on Aβ42 production (FIG. 15A).

[2] = target: T1, γ-secretase cleavage of Notch1 (NICD) (Homo sapiens, UniProt P49768); assay: Cell-free generation of NICD from membrane fractions of 293 cells overexpressing Notch-AE; assay type: biochemical
T1 construct: Membrane fractions isolated from 293 cells overexpressing either APP (A), Notch-AE (B) or p75-AE (C); endogenous in cells; host or cells: 293 cells (membrane fractions); only the substrates APP, Notch-ΔE and p75-ΔE are overexpressed
Procedure: (§1) Membrane fractions isolated from 293 cells overexpressing either APP (A), Notch-AE (B) or p75-AE (C) and incubated in the presence of indicated compounds: Compound E (CpdE, general γ-secretase inhibitor), Rgk351, Rk1 and sulindac sulfide (SS).

[3] = target: T2, γ-secretase cleavage of p75 neurotrophin receptor (p75-ICD) (Homo sapiens, UniProt P49768); assay: Cell-free generation of p75-ICD from membrane fractions of 293 cells overexpressing p75-AE; assay type: biochemical
T2 construct: Membrane fractions isolated from 293 cells overexpressing either APP (A), Notch-AE (B) or p75-AE (C); endogenous in cells; host or cells: 293 cells (membrane fractions); only the substrates APP, Notch-ΔE and p75-ΔE are overexpressed
Procedure: as §1

[4] = target: T3, γ-secretase cleavage of APP (AICD) (Homo sapiens, UniProt P49768); assay: Cell-free generation of AICD from membrane fractions of 293 cells overexpressing APP; assay type: biochemical
T3 construct: Membrane fractions isolated from 293 cells overexpressing either APP (A), Notch-AE (B) or p75-AE (C); endogenous in cells; host or cells: 293 cells (membrane fractions); only the substrates APP, Notch-ΔE and p75-ΔE are overexpressed
Procedure: as §1

[5] = system: Aβ40 and Aβ42 production, CHO-APP/PS1 cells; assay: Secreted Aβ ELISA in CHO-APP/PS1 cells (wild-type PS1); assay type: cell-based, Chinese hamster; details: 50 μM, 8 hrs, FIG. 11; for secretion of Aβ42: heat-processing derived ginsenosides
Procedure: The effects of Rg5 on the Aβ42 generation were much smaller as compared to Rgk351 and Rk1.
FIG. 10 depicts the effects of native ginsenosides on Aβ42 production. CHO cells stably transfected with human APP695 together with either wild-type (A, CHO-APP/PS1 cells) or ΔE9 FAD mutant (B, CHO-APP/ΔE9PS1 cells) forms of PS1 were used. Cells were treated with the indicated compounds (at 50 μM) for 8 hrs. Levels of secreted Aβ40 and Aβ42 in the medium were determined by ELISA and normalized to intracellular full-length APP. In CHO-APP/PS1 cells, average Aβ amounts in control samples were 320 pM for Aβ40 and 79 pM for Aβ42. The relative levels of Aβ and Aβ42 were normalized to values obtained from non-treated and vehicle-treated cells and are shown as % to control+s.d.). One of three representative experiments are shown.
CHO-APP/PS1 (A) and CHO-APP/ΔE9PS1 (B) cells were treated with the indicated compounds at 50 μM for 8 hrs and the levels of secreted Aβ40 and Aβ42 were determined as described in FIG. 1. […] The PS1-ΔE9 FAD mutation diminished the Aβ42 response to Rk1 treatment (B).

[6] = system: Aβ42 production in mammalian cells; details: Tae-Wan Kim et al.; cited from earlier work
[7] = system: Aβ40 and Aβ42 generation, Neuro2a-SW cells; assay: Aβ generation in Neuro2a cells expressing human Swedish mutant APP (Neuro2a-SW); assay type: cell-based, mouse; details: FIG. 16; for levels of Aβ42 / production of Aβ42: Neuro2a-SW
Text: FIG. 16 depicts the effects of two major metabolites of ginsenosides, including 20(S)-protopanaxatriol (PPT) and 20(S)-protopanaxadiol (PPD) on Aβ42 generation. 20(S)-panaxatriol (PT) and 20(S)-panaxadiol (PD) are the artificial derivatives of PPT and PPPD, respectively.
Ginsenosides are metabolized by human intestinal bacteria after oral administration of ginseng extract (Kobayashi K., et al., Metabolism of ginsenoside by human intestinal bacteria [II] Ginseng Review 1994; 18: 10-14; Hasegawa H., et al., Main ginseng saponin metabolites formed by intestinal bacteria. Planta Med. 1996; 62: 453-457.). Therefore, the effects of two major metabolites of ginsenosides, including 20(S)-protopanaxatriol (PPT) and 20(S)-protopanaxadiol (PPD) on Aβ42 generation were tested. 20(S)-panaxatriol (PT) and 20(S)-panaxadiol (PD) are the artificial derivatives of PPT and PPPD, respectively.

CC(C)=CCC[C@](C)(O)[C@H]1CC[C@]2(C)[C@@H]1[C@H](O)C[C@@H]1[C@@]3(C)CC[C@H](O)C(C)(C)[C@@H]3[C@@H](O[C@@H]3O[C@H](CO)[C@@H](O)[C@H](O)[C@H]3O[C@@H]3O[C@@H](C)[C@H](O)[C@@H](O)[C@H]3O)C[C@]12C [Rg2]
inhibitory effects on Aβ40 production [1]: None | inhibitory effects on Aβ42 production [1]: None | Aβ42-lowering activity [1]: No

COc1ccc2cc([C@H](C)C(=O)O)ccc2c1 [naproxen, reference compound]
Aβ42 generation in vitro (γ-secretase): no effects

C=C(CCC=C(C)C)[C@H]1CC[C@]2(C)[C@@H]1[C@H](O)C[C@@H]1[C@@]3(C)CC[C@H](O)C(C)(C)[C@@H]3[C@@H](O[C@@H]3O[C@H](CO)[C@@H](O)[C@H](O)[C@H]3O)C[C@]12C [Rk3]
Aβ42-lowering activity [1]: No

C[C@H](NC(=O)Cc1cc(F)cc(F)c1)C(=O)N[C@H]1N=C(c2ccccc2)c2ccccc2N(C)C1=O [Compound E]
cell-free generation of NICD [2]: efficiently inhibited | cell-free generation of NICD ([2]; listed as Cpd.E): Very low amounts | cell-free generation of p75-ICD [3]: efficiently inhibited | cell-free generation of p75-ICD ([3]; listed as Cpd.E): Very low amounts | cell-free generation of AICD [4]: efficiently inhibited | cell-free generation of AICD ([4]; listed as Cpd.E): Very low amounts

CC(C)=CCC[C@](C)(O[C@@H]1O[C@H](CO[C@@H]2OC[C@@H](O)[C@H](O)[C@H]2O)[C@@H](O)[C@H](O)[C@H]1O)[C@H]1CC[C@]2(C)[C@@H]1[C@H](O)C[C@@H]1[C@@]3(C)CC[C@H](O[C@@H]4O[C@H](CO)[C@@H](O)[C@H](O)[C@H]4O[C@@H]4O[C@H](CO)[C@@H](O)[C@H](O)[C@H]4O)C(C)(C)[C@@H]3CC[C@]12C [Rb3]
Aβ42-lowering activity [1]: No

CC(C)=CCC[C@](C)(O[C@@H]1O[C@H](CO[C@@H]2OC[C@H](O)[C@H](O)[C@H]2O)[C@@H](O)[C@H](O)[C@H]1O)[C@H]1CC[C@]2(C)[C@@H]1[C@H](O)C[C@@H]1[C@@]3(C)CC[C@H](O[C@@H]4O[C@H](CO)[C@@H](O)[C@H](O)[C@H]4O[C@@H]4O[C@H](CO)[C@@H](O)[C@H](O)[C@H]4O)C(C)(C)[C@@H]3CC[C@]12C [Rb2]
inhibitory effects on Aβ40 production [1]: None | inhibitory effects on Aβ42 production [1]: None | Aβ42-lowering activity [1]: No

CC(C)=CCC[C@](C)(O)[C@H]1CC[C@]2(C)[C@@H]1[C@H](O)C[C@@H]1[C@@]3(C)CC[C@H](O)C(C)(C)[C@@H]3[C@@H](O[C@@H]3O[C@H](CO)[C@@H](O)[C@H](O)[C@H]3O)C[C@]12C [Rh1]
secretion of Aβ42 [5]: not significant; also recorded: not affected | Aβ42-lowering activity [1]: No

CC(C)=CCC[C@](C)(O[C@@H]1O[C@H](CO)[C@@H](O)[C@H](O)[C@H]1O)[C@H]1CC[C@]2(C)[C@@H]1[C@H](O)C[C@@H]1[C@@]3(C)CC[C@H](O)C(C)(C)[C@@H]3[C@@H](O[C@@H]3O[C@H](CO)[C@@H](O)[C@H](O)[C@H]3O)C[C@]12C [Rg1]
amyloid-reducing activity in vitro [6]: no amyloid-reducing activity in vitro | inhibitory effects on Aβ40 production [1]: None | inhibitory effects on Aβ42 production [1]: None | Aβ42-lowering activity [1]: No

CC(C)=CC/C=C(\C)[C@H]1CC[C@]2(C)[C@@H]1[C@H](O)C[C@@H]1[C@@]3(C)CC[C@H](O)C(C)(C)[C@@H]3[C@@H](O[C@@H]3O[C@H](CO)[C@@H](O)[C@H](O)[C@H]3O)C[C@]12C [Rh4]
Aβ42-lowering activity [1]: No

CC1(C)CCC[C@](C)([C@H]2CC[C@]3(C)[C@@H]2[C@H](O)C[C@@H]2[C@@]4(C)CC[C@H](O)C(C)(C)[C@@H]4CC[C@]23C)O1 [PD, 20(S)-panaxadiol]
inhibitory effects on Aβ40 generation [7]: did not confer any inhibitory effects | inhibitory effects on Aβ42 generation [7]: did not confer any inhibitory effects

CC(C)=CCC[C@](C)(O)[C@H]1CC[C@]2(C)[C@@H]1[C@H](O)C[C@@H]1[C@@]3(C)CC[C@H](O)C(C)(C)[C@@H]3CC[C@]12C [PPD, 20(S)-protopanaxadiol]
inhibitory effects on Aβ40 generation [7]: did not confer any inhibitory effects | inhibitory effects on Aβ42 generation [7]: did not confer any inhibitory effects | Aβ42-lowering activity [1]: No

CC(C)=CCC[C@](C)(O[C@@H]1O[C@H](CO[C@@H]2O[C@H](CO)[C@@H](O)[C@H](O)[C@H]2O)[C@@H](O)[C@H](O)[C@H]1O)[C@H]1CC[C@]2(C)[C@@H]1[C@H](O)C[C@@H]1[C@@]3(C)CC[C@H](O[C@@H]4O[C@H](CO)[C@@H](O)[C@H](O)[C@H]4O[C@@H]4O[C@H](CO)[C@@H](O)[C@H](O)[C@H]4O)C(C)(C)[C@@H]3CC[C@]12C [Rb1]
inhibitory effects on Aβ40 production [1]: None | inhibitory effects on Aβ42 production [1]: None | Aβ42-lowering activity [1]: No

CC1(C)CCC[C@](C)([C@H]2CC[C@]3(C)[C@@H]2[C@H](O)C[C@@H]2[C@@]4(C)CC[C@H](O)C(C)(C)[C@@H]4[C@@H](O)C[C@]23C)O1 [PT, 20(S)-panaxatriol]
levels of Aβ42 [7]: without affecting | production of Aβ42 [7]: reduced the production of Aβ42 | levels of Aβ42 [1]: without affecting | production of Aβ42 [1]: reduced the production of Aβ42

CC(C)=CCCC(C)(O)C1CCC2(C)C1C(O)CC1C3(C)CCC(OC4OC(CO)C(O)C(O)C4OC4OC(CO)C(O)C(O)C4O)C(C)(C)C3CCC12C [(20R)Rg3]
potency of Aβ42-reducing activity (rank) [5]: Rk1>/=(20S)Rg3>Rg5>(20R)Rg3 | secretion of Aβ42 [5]: not affected | generation of Aβ42 (Aβ42 levels in the medium, ELISA, normalized to intracellular full-length APP) ([1]; 50 μg/ml, 8 hrs, FIG. 4): reduce the generation of Aβ42 | Aβ42-lowering activity [1]: Yes

CC(C)=CCC[C@](C)(O)[C@H]1CC[C@]2(C)[C@@H]1[C@H](O)C[C@@H]1[C@@]3(C)CC[C@H](O)C(C)(C)[C@@H]3[C@@H](O)C[C@]12C [PPT, 20(S)-protopanaxatriol]
levels of Aβ42 [7]: without affecting | production of Aβ42 [7]: reduced the production of Aβ42 | levels of Aβ42 [1]: without affecting | production of Aβ42 [1]: reduced the production of Aβ42 | Aβ42-lowering activity [1]: Yes
